Molecules are shown by their SMILES. Where two headings read alike, the source gives them in different places.

Common to all, as to assay: Figure S2a opioid peptide screen on chemokine receptors
Holding throughout (type): cell-based
What all share (set-up): dose or concentration left out as unconfirmed

One test addresses T1, XCR1 (Homo sapiens, UniProt P46094).
T1 construct: expressed in transfected cells
T1 sequence (P46094 1-333): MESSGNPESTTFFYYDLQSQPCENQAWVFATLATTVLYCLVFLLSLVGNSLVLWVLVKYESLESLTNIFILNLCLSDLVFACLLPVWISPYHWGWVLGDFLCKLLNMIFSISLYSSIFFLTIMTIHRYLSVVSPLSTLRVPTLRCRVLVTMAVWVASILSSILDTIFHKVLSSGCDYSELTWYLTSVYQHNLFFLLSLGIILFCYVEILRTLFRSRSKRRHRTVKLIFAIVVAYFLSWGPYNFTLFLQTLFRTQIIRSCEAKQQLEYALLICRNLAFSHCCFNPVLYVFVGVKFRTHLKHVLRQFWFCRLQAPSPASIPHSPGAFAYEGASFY

For a further test, the target named is T2, CXCR3A (Homo sapiens, UniProt P49682).
T2 construct: expressed in transfected cells; host or cells: U87 cells
T2 sequence (P49682 1-368): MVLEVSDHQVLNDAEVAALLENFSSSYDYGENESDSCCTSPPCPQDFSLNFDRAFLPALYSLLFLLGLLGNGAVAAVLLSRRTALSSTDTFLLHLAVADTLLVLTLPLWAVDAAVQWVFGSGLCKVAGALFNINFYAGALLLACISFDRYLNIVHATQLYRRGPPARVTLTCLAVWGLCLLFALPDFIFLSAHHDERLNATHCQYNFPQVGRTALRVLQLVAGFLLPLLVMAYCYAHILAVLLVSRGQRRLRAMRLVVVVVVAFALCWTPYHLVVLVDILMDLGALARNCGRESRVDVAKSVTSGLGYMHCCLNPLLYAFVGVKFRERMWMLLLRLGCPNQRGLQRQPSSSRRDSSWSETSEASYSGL

The target of the next test is T3, CXCR2 (Homo sapiens, UniProt P25025).
T3 construct: expressed in transfected cells
T3 sequence (P25025 1-360): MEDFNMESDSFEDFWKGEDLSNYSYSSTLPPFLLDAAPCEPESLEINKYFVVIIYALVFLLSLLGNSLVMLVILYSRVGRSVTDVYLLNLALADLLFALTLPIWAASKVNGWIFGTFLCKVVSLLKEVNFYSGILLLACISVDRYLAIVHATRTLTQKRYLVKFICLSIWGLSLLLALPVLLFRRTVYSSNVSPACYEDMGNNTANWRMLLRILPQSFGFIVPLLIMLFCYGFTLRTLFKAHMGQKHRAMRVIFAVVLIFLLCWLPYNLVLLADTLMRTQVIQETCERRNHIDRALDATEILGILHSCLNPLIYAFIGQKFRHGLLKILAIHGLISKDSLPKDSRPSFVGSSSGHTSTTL

For the next test, the target named is T4, CCR1 (Homo sapiens, UniProt P32246).
T4 construct: expressed in transfected cells
T4 sequence (P32246 1-355): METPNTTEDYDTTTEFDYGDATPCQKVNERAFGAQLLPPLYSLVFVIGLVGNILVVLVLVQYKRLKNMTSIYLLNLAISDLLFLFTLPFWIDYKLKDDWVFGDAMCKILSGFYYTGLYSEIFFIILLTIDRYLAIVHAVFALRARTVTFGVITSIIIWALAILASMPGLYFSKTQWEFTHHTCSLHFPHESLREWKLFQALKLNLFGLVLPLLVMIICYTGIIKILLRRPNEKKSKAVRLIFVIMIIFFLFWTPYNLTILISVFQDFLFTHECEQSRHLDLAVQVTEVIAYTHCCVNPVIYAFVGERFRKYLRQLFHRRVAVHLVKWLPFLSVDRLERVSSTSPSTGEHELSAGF

For a further test, the target named is T5, CCR5 (Homo sapiens, UniProt P51681).
T5 construct: expressed in transfected cells
T5 sequence (P51681 whole entry): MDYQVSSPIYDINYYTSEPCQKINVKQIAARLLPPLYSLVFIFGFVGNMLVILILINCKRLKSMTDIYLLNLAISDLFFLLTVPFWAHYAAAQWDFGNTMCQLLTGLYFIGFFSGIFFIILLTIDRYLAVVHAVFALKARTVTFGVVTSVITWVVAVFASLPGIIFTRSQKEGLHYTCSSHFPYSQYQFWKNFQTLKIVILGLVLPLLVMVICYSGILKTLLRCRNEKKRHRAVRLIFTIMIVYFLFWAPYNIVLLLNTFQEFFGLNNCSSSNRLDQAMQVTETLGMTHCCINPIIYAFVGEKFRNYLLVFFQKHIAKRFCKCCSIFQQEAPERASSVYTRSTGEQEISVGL

The target in another test is T6, ACKR2 (Homo sapiens, UniProt O00590).
T6 construct: expressed in transfected cells; host or cells: U87 cells (human glioblastoma)
T6 sequence (O00590 1-384): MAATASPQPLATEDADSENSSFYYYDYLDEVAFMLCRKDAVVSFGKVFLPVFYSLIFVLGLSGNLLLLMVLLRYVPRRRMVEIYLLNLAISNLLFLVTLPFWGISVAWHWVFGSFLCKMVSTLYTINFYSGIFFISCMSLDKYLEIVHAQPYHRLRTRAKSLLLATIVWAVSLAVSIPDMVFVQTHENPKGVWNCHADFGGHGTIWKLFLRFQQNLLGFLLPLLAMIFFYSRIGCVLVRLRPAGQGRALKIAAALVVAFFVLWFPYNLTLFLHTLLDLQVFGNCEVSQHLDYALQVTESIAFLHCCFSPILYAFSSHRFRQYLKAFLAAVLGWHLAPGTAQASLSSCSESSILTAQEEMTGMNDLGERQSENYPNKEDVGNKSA

For a further test, the target named is T7, CXCR3B (Homo sapiens, UniProt P49682).
T7 construct: expressed in transfected cells; host or cells: U87 cells
T7 sequence (P49682 1-415 isoform P49682-2): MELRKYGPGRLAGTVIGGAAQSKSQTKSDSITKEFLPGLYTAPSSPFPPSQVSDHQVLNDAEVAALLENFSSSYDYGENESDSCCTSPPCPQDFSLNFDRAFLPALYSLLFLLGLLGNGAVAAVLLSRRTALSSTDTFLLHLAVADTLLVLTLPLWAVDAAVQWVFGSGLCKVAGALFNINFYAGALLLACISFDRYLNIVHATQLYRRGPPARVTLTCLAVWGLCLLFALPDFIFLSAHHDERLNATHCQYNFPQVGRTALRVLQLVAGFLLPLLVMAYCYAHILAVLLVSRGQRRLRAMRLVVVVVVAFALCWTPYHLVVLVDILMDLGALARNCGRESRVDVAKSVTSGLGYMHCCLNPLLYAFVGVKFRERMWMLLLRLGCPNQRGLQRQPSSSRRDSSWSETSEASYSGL

Setting [1] is: replicate 1, read-out: XCR1 activity, ctrl+ = 100.
Setting [2] is: replicate 2, read-out: XCR1 activity, ctrl+ = 100.
Setting [3] is: replicate 1, read-out: CXCR3A activity, ctrl+ = 100.
Where [4] appears, read: replicate 2, read-out: CXCR3A activity, ctrl+ = 100.
Where [5] appears, read: replicate 1, read-out: CXCR2 activity, ctrl+ = 100.
Setting [6] is: replicate 2, read-out: CXCR2 activity, ctrl+ = 100.
The mark [7] stands for this setting: replicate 1, read-out: CCR1 activity, ctrl+ = 100.
Where [8] appears, read: replicate 2, read-out: CCR1 activity, ctrl+ = 100.
[9] abbreviates: replicate 1, read-out: CCR5 activity, ctrl+ = 100.
Where [10] appears, read: replicate 2, read-out: CCR5 activity, ctrl+ = 100.
Setting [11] is: replicate 1, read-out: ACKR2 activity, ctrl+ = 100.
The mark [12] stands for this setting: replicate 2, read-out: ACKR2 activity, ctrl+ = 100.
[13] abbreviates: replicate 1, read-out: CXCR3B activity, ctrl+ = 100.
Setting [14] is: replicate 2, read-out: CXCR3B activity, ctrl+ = 100.

Consider `C[C@H](NC(=O)CNC(=O)[C@@H](NC(=O)[C@H](Cc1ccccc1)NC(=O)CNC(=O)CNC(=O)[C@@H](N)Cc1ccccc1)[C@@H](C)O)C(=O)N[C@@H](CCCNC(=N)N)C(=O)N[C@@H](CCCCN)C(=O)N[C@@H](CO)C(=O)N[C@@H](C)C(=O)N[C@@H](CCCNC(=N)N)C(=O)N[C@@H](CCCCN)C(N)=O` [Nociceptin 1-13], for which the activation on XCR1 (setting [1]) was 2.91%; on XCR1 (setting [2]), 3.06%; on XCR1 (replicate 3, read-out: XCR1 activity, ctrl+ = 100), 4.45%; at CXCR3A (setting [3]), -0.431%; on CXCR3A (setting [4]), -4.46%; at CXCR3A (replicate 3, read-out: CXCR3A activity, ctrl+ = 100) it was -5.38%. For the same compound, the activation at CXCR2 (setting [5]) was -8.55%; at CXCR2 (setting [6]), -9.95%; at CXCR2 (replicate 3, read-out: CXCR2 activity, ctrl+ = 100), -4.53%; at CCR1 (setting [7]), -0.621%; at CCR1 (setting [8]), 1.74%; on CCR1 (replicate 3, read-out: CCR1 activity, ctrl+ = 100), -35.9%. Besides, the activation is -0.291% on CCR5 (setting [9]); -0.592% on CCR5 (setting [10]); 0.907% at CCR5 (replicate 3, read-out: CCR5 activity, ctrl+ = 100); -54.6% at ACKR2 (setting [11]); -2.02% at ACKR2 (setting [12]); 10.5% on ACKR2 (replicate 3, read-out: ACKR2 activity, ctrl+ = 100). The activation is -2.86% at CXCR3B (setting [13]); 1.14% on CXCR3B (setting [14]); 7.41% at CXCR3B (replicate 3, read-out: CXCR3B activity, ctrl+ = 100).

In the case of `CC(C)C[C@H](NC(=O)[C@H](CCCCN)NC(=O)[C@H](CCCN=C(N)N)NC(=O)[C@H](C)NC(=O)[C@H](CO)NC(=O)[C@H](CCCCN)NC(=O)[C@H](CCCN=C(N)N)NC(=O)[C@H](C)NC(=O)CNC(=O)[C@@H](NC(=O)[C@H](Cc1ccccc1)NC(=O)CNC(=O)CNC(=O)[C@@H](N)Cc1ccccc1)[C@@H](C)O)C(=O)N[C@@H](C)C(=O)N[C@@H](CC(N)=O)C(=O)N[C@@H](CCC(N)=O)C(=O)O` [Nociceptin], the activation was 1.08% at XCR1 (setting [1]); -2.39% on XCR1 (setting [2]); -2.21% at CXCR3A (setting [3]); -5.51% at CXCR3A (setting [4]); -2.08% on CXCR2 (setting [5]); -14.7% on CXCR2 (setting [6]). Further, the activation on CCR1 (setting [7]) was -16.6%; at CCR1 (setting [8]), -34.2%; at CCR5 (setting [9]), 1.59%; on CCR5 (setting [10]), -0.199%; on ACKR2 (setting [11]), -19.6%; on ACKR2 (setting [12]) it was -66.1%. The activation at CXCR3B (setting [13]) is -0.23%; at CXCR3B (setting [14]), -6.64%.

Values taken from article PMC7305236, “The atypical chemokine receptor ACKR3/CXCR7 is a broad-spectrum scavenger for opioid peptides” (Nature Communications, 2020).
